Measurements from US20240400561A1, “NOVEL SUBSTITUTED SULFONYLUREA COMPOUNDS AS INHIBITORS OF INTERLEUKIN-1 ACTIVITY” (Viva Star Biosciences (Suzhou) Co., Ltd., priority 2021, published 2024).

molecular target: T1, NLRP3 (Homo sapiens, UniProt Q96P20); experiment: THP-1 cell assay (LPS priming, nigericin), IL1β release by HTRF; called pyroptosis assay, THP IC50; assay type: cell-based; conditions: NLRP3 inhibitory activity; THP-1 cells, 1.0 ug/mL LPS, compound 3 hrs, nigericin 5 uM 1 hr, IL1β in supernatant
T1 construct: Seed THP-1 cells (5.56*10^5 cells/mL) containing 1.0 ug/mL LPS; endogenous in cells; host or cells: THP-1 cells
T1 sequence (Q96P20 whole entry): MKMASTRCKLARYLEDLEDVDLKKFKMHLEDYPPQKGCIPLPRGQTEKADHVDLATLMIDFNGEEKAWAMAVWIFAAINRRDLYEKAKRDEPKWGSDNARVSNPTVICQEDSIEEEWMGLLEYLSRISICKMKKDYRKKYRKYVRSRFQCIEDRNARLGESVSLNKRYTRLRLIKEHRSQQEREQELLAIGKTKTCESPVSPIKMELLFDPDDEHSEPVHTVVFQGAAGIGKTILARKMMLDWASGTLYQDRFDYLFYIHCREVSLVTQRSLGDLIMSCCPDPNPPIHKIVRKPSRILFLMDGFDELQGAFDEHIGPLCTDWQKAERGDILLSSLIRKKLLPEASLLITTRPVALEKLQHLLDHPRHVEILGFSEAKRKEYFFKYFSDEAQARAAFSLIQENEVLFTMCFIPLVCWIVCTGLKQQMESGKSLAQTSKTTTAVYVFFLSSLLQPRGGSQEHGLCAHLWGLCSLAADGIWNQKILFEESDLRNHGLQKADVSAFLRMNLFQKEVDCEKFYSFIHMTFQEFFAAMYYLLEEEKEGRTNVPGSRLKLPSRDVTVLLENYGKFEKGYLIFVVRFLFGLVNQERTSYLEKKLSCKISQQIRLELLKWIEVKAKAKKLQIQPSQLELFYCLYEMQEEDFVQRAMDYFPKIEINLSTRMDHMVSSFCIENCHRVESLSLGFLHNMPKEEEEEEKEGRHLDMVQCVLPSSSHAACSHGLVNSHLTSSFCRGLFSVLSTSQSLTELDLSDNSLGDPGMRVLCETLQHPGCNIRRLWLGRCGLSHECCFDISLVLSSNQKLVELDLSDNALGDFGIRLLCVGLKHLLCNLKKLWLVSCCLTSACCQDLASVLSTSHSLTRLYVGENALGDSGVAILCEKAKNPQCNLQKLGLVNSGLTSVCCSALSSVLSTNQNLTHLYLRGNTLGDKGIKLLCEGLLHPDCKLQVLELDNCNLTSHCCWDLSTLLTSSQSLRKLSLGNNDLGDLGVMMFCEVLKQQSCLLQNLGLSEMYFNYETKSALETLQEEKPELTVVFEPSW
Protocol: The following method was used for compound screening. • 1. Seed THP-1 cells (5.56*10^5 cells/mL) containing 1.0 ug/mL LPS (SIGMA, L6529) in 45 uL RPMI 1640 medium (without FBS) into 384-well plate (Thermo Scientific, 164688). • 2. Add 5 uL compound (10 doses starting from 5 uM, 1:3 dilution) or vehicle (0.05% DMSO in medium) to the appropriate wells. • 3. Centrifuge the plates at 1000 rpm for 2 mins and incubate for 3 hrs at 37° C., 5% CO2. • 4. Add 5 uL nigericin (MEC, HY-100381) (final conc. 5 uM) to sample wells and positive control wells; add 5 uL RPMI 1640 medium to negative control wells. • 5. Centrifuge plates at 1000 rpm for 2 mins and incubate for 1 hr at 37° C., 5% CO2. • 6. At the end of the incubation period, centrifuge plates at 1000 rpm for 6 mins and transfer 8 uL supernatant into 384-well assay plates (PerkinElmer, 6008280). • 7. Add 8 ul RPMI 1640 medium into each well and spin down for 10 secs. • 8. Prepare the standard solutions and pre-mixed IL1β antibody solution of Human […] kits (PerkinElmer, 62HIL1BPEH) according to the instruction. • 9. Add 16 uL standard solutions into clear wells of 384-well assay plates. • 10. Add 4 uL pre-mixed IL1β antibody solution to all wells including sample wells, positive control wells, negative control wells and standard solutions wells. • 11. Seal the plates, spin down for 10 secs, incubation for overnight at RT and read on an HTRF® compatible reader (BMG LABTECH, PHERAstar FS). • 12. The concentrations of IL1β for treated wells are calculated by the standard curve. • 13. The IC50 data is fitted to a non-liner regression equation (log inhibitor vs. response—Variable slope four parameters)).

| SMILES | IC50 |
| --- | --- |
| CO[C@H](C)Cn1ccc(S(=O)(=O)NC(=O)Nc2c3c(cc(C)c2-c2ccn4nccc4c2)CCC3)n1 [Example 27, (R)-1-(2-methoxypropyl)-N-((6-methyl-5-(pyrazolo[1,5-a]pyridin-5-yl)-2,3-dihydro-1H-inden-4-yl)carbamoyl)-1H-pyrazole-3-sulfonamide] | ≤ 30 nM |
| Cc1cc2c(c(NC(=O)NS(=O)(=O)c3cncc(N(C)C4CC4)c3)c1-c1ccn3nccc3c1)CCC2 [Example 29, 5-(cyclopropyl(methyl)amino)-N-((6-methyl-5-(pyrazolo[1,5-a]pyridin-5-yl)-2,3-dihydro-1H-inden-4-yl)carbamoyl)pyridine-3-sulfonamide] | 30 to 300 nM |
| CN(c1cncc(S(=O)(=O)NC(=O)Nc2c(-c3ccn4nccc4c3)ccc3c2CCC3)c1)C1CC1 [Example 30, 5-(cyclopropyl(methyl)amino)-N-((5-(pyrazolo[1,5-a]pyridin-5-yl)-2,3-dihydro-1H-inden-4-yl)carbamoyl)pyridine-3-sulfonamide] | 30 to 300 nM |
| O=C(Nc1c(-c2ccn3nccc3c2)ccc2c1CCC2)NS(=O)(=O)c1cncc(NC2CC2)c1 [Example 31, 5-(cyclopropylamino)-N-((5-(pyrazolo[1,5-a]pyridin-5-yl)-2,3-dihydro-1H-inden-4-yl)carbamoyl)pyridine-3-sulfonamide] | ≤ 30 nM |
| Cc1cc2c(c(NC(=O)NS(=O)(=O)c3ccnc(N4CCOCC4)c3)c1-c1ccn3nccc3c1)CCC2 [Example 32, N-((6-methyl-5-(pyrazolo[1,5-a]pyridin-5-yl)-2,3-dihydro-1H-inden-4-yl)carbamoyl)-2-morpholinopyridine-4-sulfonamide] | ≤ 30 nM |
| Cc1cc2c(c(NC(=O)NS(=O)(=O)c3ccnc(OC4CC4)c3)c1-c1ccn3nccc3c1)CCC2 [Example 33, 2-cyclopropoxy-N-((6-methyl-5-(pyrazolo[1,5-a]pyridin-5-yl)-2,3-dihydro-1H-inden-4-yl)carbamoyl)pyridine-4-sulfonamide] | ≤ 30 nM |
| Cc1cc2c(c(NC(=O)NS(=O)(=O)c3cncc(OC4CC4)c3)c1-c1ccn3nccc3c1)CCC2 [Example 34, 5-cyclopropoxy-N-((6-methyl-5-(pyrazolo[1,5-a]pyridin-5-yl)-2,3-dihydro-1H-inden-4-yl)carbamoyl)pyridine-3-sulfonamide] | ≤ 30 nM |
| Cc1cc2c(c(NC(=O)NS(=O)(=O)c3cncc(OC4CCC4)c3)c1-c1ccn3nccc3c1)CCC2 [Example 35, 5-cyclobutoxy-N-((6-methyl-5-(pyrazolo[1,5-a]pyridin-5-yl)-2,3-dihydro-1H-inden-4-yl)carbamoyl)pyridine-3-sulfonamide] | ≤ 30 nM |
| Cc1cc2c(c(NC(=O)NS(=O)(=O)c3cncc(N(C)C4CCC4)c3)c1-c1ccn3nccc3c1)CCC2 [Example 36, 5-(cyclobutyl(methyl)amino)-N-((6-methyl-5-(pyrazolo[1,5-a]pyridin-5-yl)-2,3-dihydro-1H-inden-4-yl)carbamoyl)pyridine-3-sulfonamide] | 30 to 300 nM |
| Cc1cc2c(c(NC(=O)NS(=O)(=O)c3cncc(NC4CC4)c3)c1-c1ccn3nccc3c1)CCC2 [Example 37, 5-(cyclopropylamino)-N-((6-methyl-5-(pyrazolo[1,5-a]pyridin-5-yl)-2,3-dihydro-1H-inden-4-yl)carbamoyl)pyridine-3-sulfonamide] | ≤ 30 nM |
| Cc1cc2c(c(NC(=O)NS(=O)(=O)c3ccnc(C4CCC4)c3)c1-c1ccn3nccc3c1)CCC2 [Example 38, 2-cyclobutyl-N-((6-methyl-5-(pyrazolo[1,5-a]pyridin-5-yl)-2,3-dihydro-1H-inden-4-yl)carbamoyl)pyridine-4-sulfonamide] | 30 to 300 nM |
| Cc1cc2c(c(NC(=O)NS(=O)(=O)c3ccc(=O)n(CC4CC4)c3)c1-c1ccn3nccc3c1)CCC2 [Example 39, 1-(cyclopropylmethyl)-N-((6-methyl-5-(pyrazolo[1,5-a]pyridin-5-yl)-2,3-dihydro-1H-inden-4-yl)carbamoyl)-6-oxo-1,6-dihydropyridine-3-sulfonamide] | 30 to 300 nM |
| CC(C)(O)c1csc(S(=O)(=O)NC(=O)Nc2c(-c3ccnc4[nH]ccc34)ccc3c2CCC3)c1 [Example 40, N-((5-(1H-pyrrolo[2,3-b]pyridin-4-yl)-2,3-dihydro-1H-inden-4-yl)carbamoyl)-4-(2-hydroxypropan-2-yl)thiophene-2-sulfonamide] | ≤ 30 nM |
| Cn1ccc2c(-c3ccc4c(c3NC(=O)NS(=O)(=O)c3cc(C(C)(C)O)cs3)CCC4)ccnc21 [Example 41, 4-(2-hydroxypropan-2-yl)-N-((5-(1-methyl-1H-pyrrolo[2,3-b]pyridin-4-yl)-2,3-dihydro-1H-inden-4-yl)carbamoyl)thiophene-2-sulfonamide] | ≤ 30 nM |
| CC(C)(O)c1csc(S(=O)(=O)NC(=O)Nc2c(-c3ccn4ccnc4c3)ccc3c2CCC3)c1 [Example 42, 4-(2-hydroxypropan-2-yl)-N-((5-(imidazo[1,2-a]pyridin-7-yl)-2,3-dihydro-1H-inden-4-yl)carbamoyl)thiophene-2-sulfonamide] | ≤ 30 nM |
| Cn1cnc2ccc(-c3ccc4c(c3NC(=O)NS(=O)(=O)c3cc(C(C)(C)O)cs3)CCC4)cc21 [Example 43, 4-(2-hydroxypropan-2-yl)-N-((5-(1-methyl-1H-benzo[d]imidazol-6-yl)-2,3-dihydro-1H-inden-4-yl)carbamoyl)thiophene-2-sulfonamide] | 300 to 1000 nM |
| Cn1ccc2cc(-c3ccc4c(c3NC(=O)NS(=O)(=O)c3cc(C(C)(C)O)cs3)CCC4)cnc21 [Example 44, 4-(2-hydroxypropan-2-yl)—N-((5-(1-methyl-1H-pyrrolo[2,3-b]pyridin-5-yl)-2,3-dihydro-1H-inden-4-yl)carbamoyl)thiophene-2-sulfonamide] | 30 to 300 nM |
| CC(C)(O)c1csc(S(=O)(=O)NC(=O)Nc2c(-c3cncc4[nH]ccc34)ccc3c2CCC3)c1 [Example 45, N-((5-(1H-pyrrolo[2,3-c]pyridin-4-yl)-2,3-dihydro-1H-inden-4-yl)carbamoyl)-4-(2-hydroxypropan-2-yl)thiophene-2-sulfonamide] | 300 to 1000 nM |
| CC(C)(O)c1csc(S(=O)(=O)NC(=O)Nc2c(-c3cnc4[nH]ccc4c3)ccc3c2CCC3)c1 [Example 46, N-((5-(1H-pyrrolo[2,3-b]pyridin-5-yl)-2,3-dihydro-1H-inden-4-yl)carbamoyl)-4-(2-hydroxypropan-2-yl)thiophene-2-sulfonamide] | 30 to 300 nM |
| Cn1ccc2c(-c3ccc4c(c3NC(=O)NS(=O)(=O)c3cc(C(C)(C)O)cs3)CCC4)cncc21 [Example 47, 4-(2-hydroxypropan-2-yl)-N-((5-(1-methyl-1H-pyrrolo[2,3-c]pyridin-4-yl)-2,3-dihydro-1H-inden-4-yl)carbamoyl)thiophene-2-sulfonamide] | 300 to 1000 nM |
| Cn1ncc2c(-c3ccc4c(c3NC(=O)NS(=O)(=O)c3cc(C(C)(C)O)cs3)CCC4)ccnc21 [Example 48, 4-(2-hydroxypropan-2-yl)-N-((5-(1-methyl-1H-pyrazolo[3,4-b]pyridin-4-yl)-2,3-dihydro-1H-inden-4-yl)carbamoyl)thiophene-2-sulfonamide] | 30 to 300 nM |
| CC(C)(O)c1csc(S(=O)(=O)NC(=O)Nc2c(-c3ccnc4c3ccn4C3CC3)ccc3c2CCC3)c1 [Example 49, N-((5-(1-cyclopropyl-1H-pyrrolo[2,3-b]pyridin-4-yl)-2,3-dihydro-1H-inden-4-yl)carbamoyl)-4-(2-hydroxypropan-2-yl)thiophene-2-sulfonamide] | 30 to 300 nM |
| CC(C)n1ccc(S(=O)(=O)NC(=O)Nc2c(-c3ccnc4c3ccn4C)ccc3c2CCC3)n1 [Example 50, 1-isopropyl-N-((5-(1-methyl-1H-pyrrolo[2,3-b]pyridin-4-yl)-2,3-dihydro-1H-inden-4-yl)carbamoyl)-1H-pyrazole-3-sulfonamide] | 300 to 1000 nM |
| CC(C)(O)c1csc(S(=O)(=O)NC(=O)Nc2c(-c3ccc4nccn4c3)ccc3c2CCC3)c1 [Example 51, 4-(2-hydroxypropan-2-yl)-N-((5-(imidazo[1,2-a]pyridin-6-yl)-2,3-dihydro-1H-inden-4-yl)carbamoyl)thiophene-2-sulfonamide] | ≤ 30 nM |
| CC(C)(O)c1csc(S(=O)(=O)NC(=O)Nc2c(-c3ccc4ncnn4c3)ccc3c2CCC3)c1 [Example 52, N-((5-([1,2,4]triazolo[1,5-a]pyridin-6-yl)-2,3-dihydro-1H-inden-4-yl)carbamoyl)-4-(2-hydroxypropan-2-yl)thiophene-2-sulfonamide] | ≤ 30 nM |
| CC(C)(O)c1csc(S(=O)(=O)NC(=O)Nc2c(-c3ccn4ncnc4c3)ccc3c2CCC3)c1 [Example 53, N-((5-([1,2,4]triazolo[1,5-a]pyridin-7-yl)-2,3-dihydro-1H-inden-4-yl)carbamoyl)-4-(2-hydroxypropan-2-yl)thiophene-2-sulfonamide] | ≤ 30 nM |
